According to patent US20070128217A1 (priority 2003, published 2007):

Legend:
[1] = test system: antibodies in sera from SARS patients (sera 1a, 1b, 2, 6, 37, 62, London, SARS-yellow, SARS-green); format: binding, human; parameters: Binding of serum 6 to linear peptides of protein X1 of SARS-CoV Urbani / Binding of serum 37 to linear peptides of protein X1 of SARS-CoV Urbani / Binding of serum 6 to looped/cyclic peptide (PEPSCAN-ELISA) / Binding of serum 37 to looped/cyclic peptide (PEPSCAN-ELISA) / Binding of serum 37 to looped/cyclic peptides of protein X1 of SARS-CoV Urbani / Binding of serum 6 to linear peptides of protein X2 / Binding of serum 37 to linear peptides of protein X2 / Binding of serum 37 to looped/cyclic peptides of protein X2 of SARS-CoV Urbani / Binding of serum 6 to linear peptides of protein M of SARS-CoV Urbani / Binding of serum 37 to linear peptides of protein M of SARS-CoV Urbani / Binding of serum 6 to looped/cyclic peptides of protein M of SARS-CoV Urbani / Binding of serum 37 to looped/cyclic peptides of protein M of SARS-CoV Urbani / Binding of serum 6 to linear peptides of protein X3 of SARS-CoV Urbani / Binding of serum 37 to linear peptides of protein X3 of SARS-CoV Urbani / Binding of serum 37 to looped/cyclic peptides of protein X3 of SARS-CoV Urbani / Binding of serum 6 to linear peptides of protein X4 of SARS-CoV Urbani / Binding of serum 37 to linear peptides of protein X4 of SARS-CoV Urbani / Binding of serum 37 to looped/cyclic peptides of protein X4 of SARS-CoV Urbani / Binding of serum 6 to linear peptides of protein X5 of SARS-CoV Urbani / Binding of serum 37 to linear peptides of protein X5 of SARS-CoV Urbani / Binding of serum 37 to looped/cyclic peptides of protein X5 of SARS-CoV Urbani / Binding of serum 6 to linear peptides of protein N of SARS-CoV Urbani / Binding of serum 37 to linear peptides of protein N of SARS-CoV Urbani / Binding of serum 6 to linear peptide (PEPSCAN-ELISA) / Binding of serum 1a to looped/cyclic peptides of protein N of SARS-CoV Urbani / Binding of serum 1b to looped/cyclic peptides of protein N of SARS-CoV Urbani / Binding of serum 2 to looped/cyclic peptides of protein N of SARS-CoV Urbani / Binding of serum 6 to looped/cyclic peptides of protein N of SARS-CoV Urbani / Binding of serum 37 to looped/cyclic peptides of protein N of SARS-CoV Urbani / Binding of serum 62 to looped/cyclic peptides of protein N of SARS-CoV Urbani / Binding of serum London to looped/cyclic peptides of protein N of SARS-CoV Urbani / Binding of serum SARS-green to looped/cyclic peptides of protein N of SARS-CoV Urbani: unit not given here
[2] = test system: control sera (pooled serum of ten healthy LUMC hospital workers; commercial negative donor pooled serum from the Dutch bloodbank); format: binding, human; parameters: Binding of Control serum LUMC to linear peptides / Binding of Control serum Blood-bank to linear peptides / Binding of Control serum LUMC to looped peptides / Binding of Control Serum Blood-Bank to Looped peptides / Binding of Control serum LUMC to linear peptides of the protein M of SARS-CoV Urbani / Binding of Control serum Blood-bank to linear peptides of the protein M of SARS-CoV Urbani / Binding of Control serum LUMC to looped peptides of the protein M of SARS-CoV Urbani / Binding of Control Serum Blood-Bank to Looped peptides of the protein M of SARS-CoV Urbani: unit not given here
[3] = test system: rabbit serum obtained by immunizing a rabbit with the SARS-CoV strain Frankfurt 1; format: binding; parameters: Binding of a rabbit serum to linear peptides / Binding of a rabbit serum to looped peptides / Rabbit serum linear peptides / Rabbit serum looped peptides / Binding of a rabbit serum to linear peptides of protein N of SARS-CoV Urbani (Rabbit serum linear peptides) / Binding of a rabbit serum to looped/cyclic peptides of protein N of SARS-CoV Urbani (Rabbit serum looped peptides): unit not given here

FLQCINACRIIMRCW
Binding of serum 1a to linear peptides of protein X1 of SARS-CoV Urbani [1]: 0.8 | Binding of serum 1a to looped/cyclic peptide (PEPSCAN-ELISA) [1]: 0.6 | Binding of serum 1b to linear peptides of protein X1 of SARS-CoV Urbani [1]: 0.6 | Binding of serum 1b to looped/cyclic peptide (PEPSCAN-ELISA) [1]: 0.4 | Binding of serum 2 to linear peptides of protein X1 of SARS-CoV Urbani [1]: 0.6 | Binding of serum 2 to looped/cyclic peptide (PEPSCAN-ELISA) [1]: 0.5 | Binding of serum 6 to linear peptides of protein X1 of SARS-CoV Urbani [1]: 0.7 | Binding of serum 6 to looped/cyclic peptide (PEPSCAN-ELISA) [1]: 0.7 | Binding of serum 37 to linear peptides of protein X1 of SARS-CoV Urbani [1]: 0.7 | Binding of serum 37 to looped/cyclic peptide (PEPSCAN-ELISA) [1]: 0.6 | Binding of serum 62 to linear peptides of protein X1 of SARS-CoV Urbani [1]: 0.6 | Binding of serum 62 to looped/cyclic peptide (PEPSCAN-ELISA) [1]: 0.6 | Binding of serum London to linear peptides of protein X1 of SARS-CoV Urbani [1]: 0.3 | Binding of serum London to looped/cyclic peptide (PEPSCAN-ELISA) [1]: 1.0 | Binding of serum SARS-green to linear peptides of protein X1 of SARS-CoV Urbani [1]: 0.3 | Binding of serum SARS-green to looped/cyclic peptide (PEPSCAN-ELISA) [1]: 0.2 | Binding of serum SARS-yellow to linear peptides of protein X1 of SARS-CoV Urbani [1]: 0.4 | Binding of serum SARS-yellow to looped/cyclic peptide (PEPSCAN-ELISA) [1]: 0.6 | Binding of Control Serum Blood-Bank to Looped peptides [2]: 0.6 | Binding of Control serum Blood-bank to linear peptides [2]: 0.8 | Binding of Control serum LUMC to linear peptides [2]: 0.9 | Binding of Control serum LUMC to looped peptides [2]: 0.6 | Binding of a rabbit serum to linear peptides [3]: 0.1 | Binding of a rabbit serum to looped peptides [3]: 0.8

GFLFLAWIMLLQFAY
Binding of serum 1a to linear peptides of protein M of SARS-CoV Urbani [1]: 0.7 | Binding of serum 1a to looped/cyclic peptides of protein M of SARS-CoV Urbani [1]: 0.6 | Binding of serum 1b to linear peptides of protein M of SARS-CoV Urbani [1]: 0.5 | Binding of serum 1b to looped/cyclic peptides of protein M of SARS-CoV Urbani [1]: 0.6 | Binding of serum 2 to linear peptides of protein M of SARS-CoV Urbani [1]: 0.5 | Binding of serum 2 to looped/cyclic peptides of protein M of SARS-CoV Urbani [1]: 0.5 | Binding of serum 6 to linear peptides of protein M of SARS-CoV Urbani [1]: 0.3 | Binding of serum 6 to looped/cyclic peptides of protein M of SARS-CoV Urbani [1]: 0.6 | Binding of serum 37 to linear peptides of protein M of SARS-CoV Urbani [1]: 0.7 | Binding of serum 37 to looped/cyclic peptides of protein M of SARS-CoV Urbani [1]: 0.6 | Binding of serum 62 to linear peptides of protein M of SARS-CoV Urbani [1]: 0.7 | Binding of serum 62 to looped/cyclic peptides of protein M of SARS-CoV Urbani [1]: 0.6 | Binding of serum London to linear peptides of protein M of SARS-CoV Urbani [1]: 0.3 | Binding of serum London to looped/cyclic peptides of protein M of SARS-CoV Urbani [1]: 0.2 | Binding of serum SARS-green to linear peptides of protein M of SARS-CoV Urbani [1]: 0.2 | Binding of serum SARS-green to looped/cyclic peptides of protein M of SARS-CoV Urbani [1]: 0.3 | Binding of serum SARS-yellow to linear peptides of protein M of SARS-CoV Urbani [1]: 0.0 | Binding of serum SARS-yellow to looped/cyclic peptides of protein M of SARS-CoV Urbani [1]: 0.4 | Binding of Control Serum Blood-Bank to Looped peptides of the protein M of SARS-CoV Urbani [2]: 0.6 | Binding of Control serum Blood-bank to linear peptides of the protein M of SARS-CoV Urbani [2]: 0.7 | Binding of Control serum LUMC to linear peptides of the protein M of SARS-CoV Urbani [2]: 0.3 | Binding of Control serum LUMC to looped peptides of the protein M of SARS-CoV Urbani [2]: 0.7 | Rabbit serum linear peptides [3]: 0.3 | Rabbit serum looped peptides [3]: 0.4

KMLHSSSLTSLLKTH
Binding of serum 1a to linear peptides of protein X2 [1]: 0.6 | Binding of serum 1a to looped/cyclic peptides of protein X2 of SARS-CoV Urbani [1]: 0.3 | Binding of serum 1b to linear peptides of protein X2 [1]: 0.5 | Binding of serum 1b to looped/cyclic peptides of protein X2 of SARS-CoV Urbani [1]: 0.4 | Binding of serum 2 to linear peptides of protein X2 [1]: 0.5 | Binding of serum 2 to looped/cyclic peptides of protein X2 of SARS-CoV Urbani [1]: 0.2 | Binding of serum 6 to linear peptides of protein X2 [1]: 0.6 | Binding of serum 6 to looped/cyclic peptides of protein X2 of SARS-CoV Urbani [1]: 0.2 | Binding of serum 37 to linear peptides of protein X2 [1]: 0.5 | Binding of serum 37 to looped/cyclic peptides of protein X2 of SARS-CoV Urbani [1]: 0.2 | Binding of serum 62 to linear peptides of protein X2 [1]: 0.6 | Binding of serum 62 to looped/cyclic peptides of protein X2 of SARS-CoV Urbani [1]: 0.3 | Binding of serum London to linear peptides of protein X2 [1]: 0.9 | Binding of serum London to looped/cyclic peptides of protein X2 of SARS-CoV Urbani [1]: 0.2 | Binding of serum SARS-green to linear peptides of protein X2 [1]: 0.6 | Binding of serum SARS-green to looped/cyclic peptides of protein X2 of SARS-CoV Urbani [1]: 0.7 | Binding of serum SARS-yellow to linear peptides of protein X2 [1]: 0.4 | Binding of serum SARS-yellow to looped/cyclic peptides of protein X2 of SARS-CoV Urbani [1]: 0.3 | Binding of Control Serum Blood-Bank to Looped peptides [2]: 0.3 | Binding of Control serum Blood-bank to linear peptides [2]: 0.7 | Binding of Control serum LUMC to linear peptides [2]: 0.5 | Binding of Control serum LUMC to looped peptides [2]: 0.4 | Binding of a rabbit serum to linear peptides [3]: 0.2 | Binding of a rabbit serum to looped peptides [3]: 0.2

SKNPLLYDANYFVCW
Binding of serum 1a to linear peptides of protein X1 of SARS-CoV Urbani [1]: 0.7 | Binding of serum 1a to looped/cyclic peptide (PEPSCAN-ELISA) [1]: 0.6 | Binding of serum 1b to linear peptides of protein X1 of SARS-CoV Urbani [1]: 0.5 | Binding of serum 1b to looped/cyclic peptide (PEPSCAN-ELISA) [1]: 0.5 | Binding of serum 2 to linear peptides of protein X1 of SARS-CoV Urbani [1]: 0.4 | Binding of serum 2 to looped/cyclic peptide (PEPSCAN-ELISA) [1]: 0.5 | Binding of serum 6 to linear peptides of protein X1 of SARS-CoV Urbani [1]: 0.5 | Binding of serum 6 to looped/cyclic peptide (PEPSCAN-ELISA) [1]: 0.4 | Binding of serum 37 to linear peptides of protein X1 of SARS-CoV Urbani [1]: 0.5 | Binding of serum 37 to looped/cyclic peptide (PEPSCAN-ELISA) [1]: 0.6 | Binding of serum 62 to linear peptides of protein X1 of SARS-CoV Urbani [1]: 0.4 | Binding of serum 62 to looped/cyclic peptide (PEPSCAN-ELISA) [1]: 0.6 | Binding of serum London to linear peptides of protein X1 of SARS-CoV Urbani [1]: 0.2 | Binding of serum London to looped/cyclic peptide (PEPSCAN-ELISA) [1]: 0.2 | Binding of serum SARS-green to linear peptides of protein X1 of SARS-CoV Urbani [1]: 0.2 | Binding of serum SARS-green to looped/cyclic peptide (PEPSCAN-ELISA) [1]: 0.4 | Binding of serum SARS-yellow to linear peptides of protein X1 of SARS-CoV Urbani [1]: 0.4 | Binding of serum SARS-yellow to looped/cyclic peptide (PEPSCAN-ELISA) [1]: 0.5 | Binding of Control Serum Blood-Bank to Looped peptides [2]: 0.6 | Binding of Control serum Blood-bank to linear peptides [2]: 0.4 | Binding of Control serum LUMC to linear peptides [2]: 0.5 | Binding of Control serum LUMC to looped peptides [2]: 0.6 | Binding of a rabbit serum to linear peptides [3]: 0.1 | Binding of a rabbit serum to looped peptides [3]: 0.6

AFQHQNSKKTTKLVV
Binding of serum 1a to linear peptides of protein X2 [1]: 0.6 | Binding of serum 1a to looped/cyclic peptides of protein X2 of SARS-CoV Urbani [1]: 0.5 | Binding of serum 1b to linear peptides of protein X2 [1]: 0.5 | Binding of serum 1b to looped/cyclic peptides of protein X2 of SARS-CoV Urbani [1]: 0.5 | Binding of serum 2 to linear peptides of protein X2 [1]: 0.6 | Binding of serum 2 to looped/cyclic peptides of protein X2 of SARS-CoV Urbani [1]: 0.4 | Binding of serum 6 to linear peptides of protein X2 [1]: 0.9 | Binding of serum 6 to looped/cyclic peptides of protein X2 of SARS-CoV Urbani [1]: 0.4 | Binding of serum 37 to linear peptides of protein X2 [1]: 0.8 | Binding of serum 37 to looped/cyclic peptides of protein X2 of SARS-CoV Urbani [1]: 0.5 | Binding of serum 62 to linear peptides of protein X2 [1]: 0.4 | Binding of serum 62 to looped/cyclic peptides of protein X2 of SARS-CoV Urbani [1]: 0.6 | Binding of serum London to linear peptides of protein X2 [1]: 0.4 | Binding of serum London to looped/cyclic peptides of protein X2 of SARS-CoV Urbani [1]: 0.2 | Binding of serum SARS-green to linear peptides of protein X2 [1]: 0.2 | Binding of serum SARS-green to looped/cyclic peptides of protein X2 of SARS-CoV Urbani [1]: 0.3 | Binding of serum SARS-yellow to linear peptides of protein X2 [1]: 0.7 | Binding of serum SARS-yellow to looped/cyclic peptides of protein X2 of SARS-CoV Urbani [1]: 0.5 | Binding of Control Serum Blood-Bank to Looped peptides [2]: 0.7 | Binding of Control serum Blood-bank to linear peptides [2]: 0.6 | Binding of Control serum LUMC to linear peptides [2]: 0.7 | Binding of Control serum LUMC to looped peptides [2]: 0.6 | Recognition of the peptide by the rabbit serum [3]: recognized
